Reference: patent US20100022604A1, “PROPHYLACTIC OR THERAPEUTIC AGENT FOR ALOPECIA” (TAISHO PHARMACEUTICAL CO., LTD., priority 2006, published 2010)

System: C57BL mice, shaved dorsal area (hair growth)
Test: Hair growth stimulatory effect measurement test in shaved mouse model
Type: in vivo
Procedure: Hair Growth Stimulatory Effect Measurement Test in Shaved Mouse Model
Dorsal hair of each of C57BL mice (female, about 7-week old) was shaved, and 200 μL of each of test compounds (90 mM) dissolved into 99% ethanol was applied to the shaved area once a day for 40 days from the day 3 after the shaving. As the evaluated compounds, the compound of the present invention and the compound (GPI-1511) disclosed in International Publication No. WO98/55090 were used. As a control, a group in which 200 μL of the vehicle was applied was used.
A hair growth state of the shaved area of each of 10 to 12 mice of each group was rated every 2 or 3 days after the start of administration by using the following hair growth score criteria.
(Hair Growth Score Criteria)
2=hair growth in less than 30% of shaved area
3=hair growth in 30% or more and less than 60% of shaved area
4=hair growth in 60% or more and less than 90% of shaved area
5=hair growth in 90% or more of shaved area

COc1ccc(OCc2nc([C@@H]3CCCN3C(=O)C(F)(F)C3(O)CC(C)(C)CC(C)(C)C3)no2)cc1OC [compound of the present invention, 1-[2-((2S)-2-{5-[(3,4-dimethoxyphenoxy)methyl]-1,2,4-oxadiazol-3-yl}pyrrolidin-1-yl)-1,1-difluoro-2-oxoethyl]-3,3,5,5-tetramethylcyclohexanol]
increase in hair growth score from the day 19 of the administration (18 μmol topical once a day, from day 19 of administration): remarkable | hair growth score compared to the group with GPI-1511 (18 μmol topical once a day, over the whole test period): higher than that of the group with GPI-1511 over the whole test period | hair growth score compared to the vehicle (control) group (female, 18 μmol (200 μL of 90 mM in 99% ethanol) applied to the shaved area once a day for 40 days, score 1-5, FIG. 1): an increase in hair growth score was exhibited from an early stage
